Measurements published in PubChem BioAssay AID330 (DTP/NCI, 2004).
“And” between values parts separate entries of the source, which are not always exact repeats. Equal values may be shown once. Inconclusive results and toxic doses are left out. How the source made its calls: active means survival T/C of 150% or more; inactive means T/C below 125% in these data.

Test system: P388 leukemia ip, CD2F1 mice, survival T/C
Assay: NCI In Vivo Anticancer Drug Screen. Data for tumor model P388 Leukemia (intraperitoneal) in CD2F1 (CDF1) mice
Conditions: endpoint: median survival time, higher = longer survival
How it was run: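 Mice carrying the transplanted tumor received test compound or vehicle. Survival was recorded in each group, and the value is the treated-group measurement divided by that of the vehicle-treated control group.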

[1] = dose: 100.0 mg/kg/injection, schedule: Q04DX003 (ip), vehicle: Klucel (hydroxypropylcellulose) (HPC)
[2] = dose: 200.0 mg/kg/injection, schedule: Q04DX003 (ip), vehicle: Klucel (hydroxypropylcellulose) (HPC)
[3] = dose: 400.0 mg/kg/injection, schedule: Q04DX003 (ip), vehicle: Klucel (hydroxypropylcellulose) (HPC)
[4] = dose: 100.0 mg/kg/injection, schedule: Q01DX009 (ip), vehicle: saline
[5] = dose: 200.0 mg/kg/injection, schedule: Q01DX009 (ip), vehicle: saline
[6] = dose: 400.0 mg/kg/injection, schedule: Q01DX009 (ip), vehicle: saline
[7] = dose: 50.0 mg/kg/injection, schedule: Q01DX009 (ip), vehicle: suspension in saline
[8] = dose: 100.0 mg/kg/injection, schedule: Q01DX009 (ip), vehicle: suspension in saline
[9] = dose: 200.0 mg/kg/injection, schedule: Q01DX009 (ip), vehicle: suspension in saline
[10] = dose: 50.0 mg/kg/injection, schedule: Q01DX009 (ip), vehicle: saline
[11] = dose: 50.0 mg/kg/injection, schedule: Q01DX009 (ip), vehicle: saline with Tween-80
[12] = dose: 100.0 mg/kg/injection, schedule: Q01DX009 (ip), vehicle: saline with Tween-80
[13] = dose: 200.0 mg/kg/injection, schedule: Q01DX009 (ip), vehicle: saline with Tween-80
[14] = dose: 25.0 mg/kg/injection, schedule: Q01DX009 (ip), vehicle: saline with Tween-80

Measured: T/C

CCN(CC)Cc1cc(N2C(=O)CC3(CCCC3)C2=O)ccc1O
inactive: [1] 100 % of control | [2] 102 % of control | [3] 105 % of control

CCN=C(C1=C(O)c2ccccc2C1=O)c1ccccc1
inactive: dose: 50.0 mg/kg/injection, schedule: Q04DX002 (ip), vehicle: saline with Tween-80 94 % of control | dose: 100.0 mg/kg/injection, schedule: Q04DX002 (ip), vehicle: saline with Tween-80 119 % of control | dose: 200.0 mg/kg/injection, schedule: Q04DX002 (ip), vehicle: saline with Tween-80 111 % of control

COCCOCCOCCOCCOCCOCCOCCOC(=O)Nc1ccc(C)c(NC(=O)OCCOCCOCCOCCOCCOCCOCCOC)c1
inactive: [4] 109 % of control | [5] 109 % of control | [6] 95 % of control

O=[N+]([O-])c1ccc(/C=C/C=C\c2cccc(S(=O)(=O)F)c2)c(Cl)c1
inactive: [1] 90 % of control | [2] 90 % of control | [3] 90 % of control

Cc1nccnc1NN=O
inactive: dose: 3.12 mg/kg/injection, schedule: Q01DX009 (ip), vehicle: water 101 % of control | dose: 6.25 mg/kg/injection, schedule: Q01DX009 (ip), vehicle: water 104 % of control | dose: 12.5 mg/kg/injection, schedule: Q01DX009 (ip), vehicle: water 111 % of control and 113 % of control | dose: 100.0 mg/kg/injection, schedule: Q01DX009 (ip), vehicle: water 87 % of control

CN(C)C1C(=O)C(C(=O)NCNC(C=O)C(O)C(O)C(O)CO)=C(O)C2(O)C(=O)C3=C(O)c4c(O)cccc4C(C)(O)C3CC12 (stereo unspecified)
inactive: dose: 50.0 mg/kg/injection, schedule: Q01DX005 (ip), vehicle: saline 100 % of control | dose: 100.0 mg/kg/injection, schedule: Q01DX005 (ip), vehicle: saline 99 % of control | dose: 200.0 mg/kg/injection, schedule: Q01DX005 (ip), vehicle: saline 96 % of control

O=[N+]([O-])c1c(Nc2ccccc2)nc(-c2ccccc2)nc1Nc1ccccc1
inactive: dose: 100.0 mg/kg/injection, schedule: Q04DX003 (ip), vehicle: saline 90 % of control | dose: 200.0 mg/kg/injection, schedule: Q04DX003 (ip), vehicle: saline 92 % of control | dose: 400.0 mg/kg/injection, schedule: Q04DX003 (ip), vehicle: saline 90 % of control

CN(C)CCNC1=CC(=O)c2ccccc2C1=O
inactive: dose: 12.5 mg/kg/injection, schedule: Q01DX009 (ip), vehicle: distilled water + Tween-80 94 % of control | dose: 25.0 mg/kg/injection, schedule: Q01DX009 (ip), vehicle: distilled water + Tween-80 101 % of control | dose: 50.0 mg/kg/injection, schedule: Q01DX009 (ip), vehicle: distilled water + Tween-80 100 % of control | dose: 100.0 mg/kg/injection, schedule: Q01DX009 (ip), vehicle: distilled water + Tween-80 97 % of control

CC1CN1P(=S)(N1CCCCC1)N1CC1C (stereo unspecified)
inactive: dose: 25.0 mg/kg/injection, schedule: Q01DX009 (ip), vehicle: suspension in saline 100 % of control | [7] 96 % of control | [8] 102 % of control | [9] 105 % of control

Cc1cc(Cl)ccc1N=Cc1cccs1
inactive: [10] 90 % of control | [4] 90 % of control | [5] 89 % of control

C=C1C[C@]23C[C@@]1(O)CC[C@H]2[C@]12C=C[C@H](O1)C(C(=O)OCC)=C2[C@@H]3O
inactive: dose: 60.0 mg/kg/injection, schedule: Q01DX005 (ip), vehicle: Klucel (hydroxypropylcellulose) (HPC) 108 % of control | dose: 120.0 mg/kg/injection, schedule: Q01DX005 (ip), vehicle: Klucel (hydroxypropylcellulose) (HPC) 115 % of control | dose: 240.0 mg/kg/injection, schedule: Q01DX005 (ip), vehicle: Klucel (hydroxypropylcellulose) (HPC) 120 % of control

O=C1CN(c2cccc(C(F)(F)F)c2)C(=O)CN1/N=C/c1ccc[nH]1
inactive: dose: 50.0 mg/kg/injection, schedule: Q01DX005 (ip), vehicle: saline with Tween-80 101 % of control | dose: 100.0 mg/kg/injection, schedule: Q01DX005 (ip), vehicle: saline with Tween-80 100 % of control | dose: 200.0 mg/kg/injection, schedule: Q01DX005 (ip), vehicle: saline with Tween-80 99 % of control

c1ccc2c(Nc3nccs3)c3ccccc3nc2c1
inactive: dose: 12.5 mg/kg/injection, schedule: Q04DX002 (ip), vehicle: distilled water + Tween-80 96 % of control | dose: 25.0 mg/kg/injection, schedule: Q04DX002 (ip), vehicle: distilled water + Tween-80 96 % of control | dose: 50.0 mg/kg/injection, schedule: Q04DX002 (ip), vehicle: distilled water + Tween-80 88 % of control | dose: 100.0 mg/kg/injection, schedule: Q04DX002 (ip), vehicle: distilled water + Tween-80 94 % of control | dose: 200.0 mg/kg/injection, schedule: Q04DX002 (ip), vehicle: distilled water + Tween-80 98 % of control | dose: 400.0 mg/kg/injection, schedule: Q04DX002 (ip), vehicle: distilled water + Tween-80 103 % of control

CCc1c2c(c(C)n1C)C(c1ccccc1)=NCC(=O)N2
inactive: [11] 91 % of control | [12] 98 % of control | [13] 98 % of control

C=CCNC(=S)Nc1ccc(NC(C)=O)c(OC)c1
inactive: dose: 50.0 mg/kg/injection, schedule: Q01DX009 (ip), vehicle: Klucel (hydroxypropylcellulose) (HPC) 102 % of control | dose: 100.0 mg/kg/injection, schedule: Q01DX009 (ip), vehicle: Klucel (hydroxypropylcellulose) (HPC) 102 % of control | dose: 200.0 mg/kg/injection, schedule: Q01DX009 (ip), vehicle: Klucel (hydroxypropylcellulose) (HPC) 86 % of control

CCOC(=O)C1=CCC(n2cc(F)c(=O)[nH]c2=O)O1 (stereo unspecified)
inactive: [10] 98 % of control | [4] 101 % of control | [5] 99 % of control | [6] 110 % of control

COc1cccc(-n2cc[n+](C)c2/C=N/O)c1
inactive: [14] 105 % of control | [11] 108 % of control

Cc1ccc(NC(=O)C2C(=O)N(c3ccc(C)c(C)c3)C(=O)C2N=N)cc1C (stereo unspecified)
inactive: dose: 100.0 mg/kg/injection, schedule: Q01DX001 (ip), vehicle: saline with Tween-80 100 % of control | dose: 200.0 mg/kg/injection, schedule: Q01DX001 (ip), vehicle: saline with Tween-80 101 % of control | dose: 400.0 mg/kg/injection, schedule: Q01DX001 (ip), vehicle: saline with Tween-80 91 % of control

CC(=O)Nc1ccc2c(ccc3ccccc32)c1
inactive: [14] 107 % of control | [11] 113 % of control | [12] 118 % of control | [13] 115 % of control

S=C1N=C2c3ccccc3C2C(=S)S1 (stereo unspecified)
inactive: [14] 93 % of control | [11] 101 % of control and 105 % of control | [12] 102 % of control and 120 % of control and 91 % of control | [13] 100 % of control and 104 % of control and 87 % of control

Cn1c([N+](=O)[O-])cnc1/C=N\N1CC(CN2CCOCC2)OC1=O (stereo unspecified)
inactive: [7] 100 % of control | [8] 100 % of control | [9] 100 % of control
